The values that follow come from patent US20250325663A1, “MEDICAMENT FOR TREATMENT AND/OR PREVENTION OF CANCER” (TORAY INDUSTRIES, INC., priority 2021, published 2025).

The test system of the experiment is colon cancer cell line HCT116. Nature of the experiment: Proliferation rate of HCT116 in culture with drug. In kind it is cell-based, human. As to conditions: cultured for 2 days.

Experimental: The human-derived cancer cells used were a colon cancer cell line HCT116, a melanoma cell line A375 (used only in the tunicamycin combination test group), a lung cancer cell line A549 (used only in the tunicamycin combination test group), and a prostate cancer cell line DU145 (used only in the tunicamycin combination test group). On a 6-well plate, the human-derived cancer cells were cultured for 1 day in the presence of tunicamycin for the tunicamycin combination test group, and cultured for 2 days in the presence of the relevant drug used in combination for the fluorouracil combination test group and the irinotecan combination test group. The concentration of the drug used in combination was set to a concentration that decreased the proliferation rate of the cancer cells by about half at the completion of culture. […] As a control, a test group without a drug used in combination was established. In the control group, only DMSO (dimethyl sulfoxide), a solvent for the drug used in combination, was added to the cancer cells at a final concentration of 0.1% (v/v), and then the cancer cells were cultured for 2 days.

In the case of `O=c1[nH]cc(F)c(=O)[nH]1` [fluorouracil], the “concentration that decreased the proliferation rate of the cancer cells by about half at the completion of culture” value stood at 0.4 µg/mL.
